Test results reported in US20100273722A1, “MODIFIED MINIATURE PROTEINS” (Yale University, priority 2007, published 2010).
Blank lines part the entries; values can stand above or below the molecule they belong to. No end group written: not given here.

How the values were obtained:
[1] = biological target: c-Src SH3 domain-GST fusion protein (Gallus gallus, UniProt P00523); test: Fluorescence polarization direct binding assay, c-Src SH3; set-up: species or system chicken
Protocol: (§1) Polarization was measured by excitation with vertically polarized light at 485 nm and the fluorescence emission detected at 530 nm in both the vertical and horizontal directions. An average of five measurements were recorded for each well. Samples were equilibrated at room temperature for 25 min before analysis, a time sufficient for the binding reactions to reach equilibrium. The polarization data were fit using Kaleidagraph v3.6 software to Eq. 5, which is derived from first principles without assumptions. […] In this equation, Pobs is the observed polarization value at any given concentration of target protein (GST•SH3 domain). Pmin is the polarization of peptide^Flu at 50 nM in the absence of target protein. Pmax is the maximum polarization of peptide^Flu at saturation with target protein. Kd is the equilibrium dissociation constant. […] Free fits are shown. Kd values were estimated as described.

[2] = biological target: Fyn SH3 domain-GST fusion protein (Homo sapiens, UniProt P06241); test: Fluorescence polarization direct binding assay, Fyn SH3
Protocol: (§2) Polarization was measured by excitation with vertically polarized light at 485 nm and the fluorescence emission detected at 530 nm in both the vertical and horizontal directions. An average of five measurements were recorded for each well. Samples were equilibrated at room temperature for 25 min before analysis, a time sufficient for the binding reactions to reach equilibrium. The polarization data were fit using Kaleidagraph v3.6 software to Eq. 5, which is derived from first principles without assumptions. […] In this equation, Pobs is the observed polarization value at any given concentration of target protein (GST•SH3 domain). Pmin is the polarization of peptide^Flu at 50 nM in the absence of target protein. Pmax is the maximum polarization of peptide^Flu at saturation with target protein. Kd is the equilibrium dissociation constant. […] In these cases a lower limit Kd was estimated by setting Pmax equal to the observed polarization at the highest target protein concentration tested, which was often limited by solubility. […] Free fits are shown. Kd values were estimated as described. […] In several cases, the plots of polarization versus [SH3 domain] began to increase at high [SH3 domain] (>50 micromolar), perhaps because of a second binding event. In these cases (indicated by an asterisk (*) in Table 5), data above 50 micromolar target protein was excluded during the curve fits.

[3] = biological target: Hck SH3 domain-GST fusion protein (Homo sapiens, UniProt P08631); test: Fluorescence polarization direct binding assay, Hck SH3
Protocol: as §1

[4] = biological target: Lyn SH3 domain-GST fusion protein (Homo sapiens, UniProt P07948); test: Fluorescence polarization direct binding assay, Lyn SH3
Protocol: as §2

[5] = biological target: Lck SH3 domain-GST fusion protein (Homo sapiens, UniProt P06239); test: Fluorescence polarization direct binding assay, Lck SH3
Protocol: as §2

[6] = biological target: c-Src SH3^P133L (Gallus gallus, UniProt P00523, P133L); test: Fluorescence polarization direct binding assay, c-Src SH3^P133L; set-up: species or system chicken
Protocol: as §1

[7] = Temperature-dependent sedimentation equilibrium of aPP^Y7AP13SV14P, monomer-dimer-tetramer fit; assay type: physicochemical; details: for % monomer: at 30 micromolar total peptide concentration; for ln KA (m): m fixed to 4 (tetramer), PBS
Protocol: aPP^Y7AP13SV14P samples were prepared in Dulbecco's PBS buffer (as described above) at concentrations of 45, 90, and 180 micromolar. Sedimentation equilibrium experiments were performed as described above and monitored at 280 nm. Samples were centrifuged to equilibrium at three speeds (42,000, 50,000, and 60,000 rpm) at 5, 10, 15, 20, 25, and 30° C. The rotor containing the samples was agitated manually between temperature runs to redistribute the sample along the length of the cell and checked by an initial scan.
The sedimentation data obtained for aPP^Y7AP13SV14P at each temperature was globally fit to Eq. 2 as described above. […] Therefore, the data from within each temperature set was then globally fit to a monomer-n-mer-m-mer model. Based on the self-association trends of the other aPP variants, in which the folded peptides best fit to a monomer-dimer model and the unfolded peptides fit to a monomer-tetramer model, the values for n and m were fixed to 2 and 4 respectively. Data fit with these parameters and the resulting residuals are presented in FIG. 5 and a summary of the fitted parameter results are given in Table 3. […] Samples were prepared in PBS buffer (90 micromolar) and centrifuged to equilibrium at speeds of 42,000 (51), 50,000 (52), and 60,000 (53) rpm.

[8] = Circular dichroism (wavelength- and temperature-dependent) of aPP variants, Example 1; assay type: physicochemical; details: 30 micromolar; for CD ellipticity at 222 nm: Tris buffer pH 8.0, 25° C.
Protocol: The CD spectra of each peptide (30 micromolar) were acquired in Tris buffer (25 mM Tris base, 50 mM NaCl, (pH 8.0)) at 25° C. in a 2 mm cell. Samples were scanned between 200 and 260 nm, with signal sampling every 0.5 nm, and three successive scans were averaged. Molar residue ellipticity values were calculated from the equation MRE=(Θsample−Θbuffer)/(L×c×n×1000), where Θ is the observed signal in millidegrees, L is the length of the cuvette in cm, c is the concentration of peptide in dmol cm^−3 and n is the number of amino acids in the molecule.
Temperature-dependent CD spectra of aPP^Y7AP13SV14P (30 micromolar) were acquired in Dulbecco's PBS (1 mM KH2PO4, 155 mM NaCl, 3 mM Na2HPO4, (pH 7.4)) in a 2 mm cell. The signal at 222 nm (MRE222) was monitored between 1° C. and 80° C. using the variable temperature module provided with the instrument. Data were collected with a 0.5° C. data pitch, 5 s delay time, 20° C./hour temperature slope, 4 s response, and 1 nm bandwidth. CD spectra were obtained as the temperature was raised and when the temperature was lowered to establish the reversibility of the folding transition. Additionally, a full wavelength scan was obtained before and after the thermal melt; an overlay of the two spectra is shown in FIG. 3A. […] Mean residue ellipticity values for the temperature dependent CD spectrum were calculated from the equation MRE=Θ222 nm/(L×c×n×1000), where Θ is observed signal at 222 nm (mdeg), L is the length of, the cuvette (cm), c is the concentration of peptide (dmol/cm^3) and n is the number of amino acids in the molecule. The first derivatives of the temperature-dependent CD spectra are shown in FIG. 3B, which is a plot of δMRE222/δT (units of deg cm^2 dmol^−1 K^−1). The Tm value reported in the main text corresponds to the temperature at which ∂MRE222/∂T is a maximum.

[9] = Sedimentation equilibrium analytical ultracentrifugation of aPP variants, monomer-n-mer fit (self-association); assay type: physicochemical; details: for % monomer at 30 μM: 30 μM peptide; for % monomer at 30 μM / lnKA when n = 2 / n (stoichiometry of the self-associated complex): 25° C.; for lnKA when n = 2: monomer-dimer; for n (stoichiometry of the self-associated complex): monomer-n-mer fit; for Kd (self-association, dimer): n = 2, 25° C., calculated from ln KA
Protocol: Analytical ultracentrifugation experiments were performed using peptide solutions prepared in Tris.Cl buffer (25 mM Tris base, 50 mM NaCl, (pH 8.0)) at the appropriate concentrations (5 micromolar to 200 micromolar). Samples were then centrifuged to equilibrium at 25° C. at 42,000, 50,000, and 60,000 rpm. Data were collected with a 0.001 cm step size and successive scans were initiated at 2 h intervals. Samples were judged to have reached equilibrium when the radial concentration gradient remained unchanged over three successive scans using the Match module of Heteroanalysis software v1.1.19. The solvent density (ρ, rho) and partial specific volume ( ν, nu) were calculated using the Sedimentation Interpretation Program “Sednterp” software v1.08.
The data for each peptide (multiple concentrations at three speeds) was first fit globally to an equation describing the sedimentation of an ideal species of molecular weight Mn (Eq. 1) using Heteroanalysis software v1.1.19:
where C represents the concentration of the sedimenting species at distances r and r0 cm from the center of rotation; ν (nu) is the partial specific volume of the sedimenting species in cc/g; ρ (rho) is the density of the supporting buffer in g/cc; ω (omega) is the angular velocity of the rotor (radians/s); Mn is the “molar” molecular weight of sedimenting species (g/mol); R is the universal gas constant (8.315×10^7 ergs K^−1 mol^−1) and T is the temperature in degrees Kelvin.
In order to quantify this self-association, the data for each peptide was next fit globally to a monomer-n-mer equilibrium model using Eq. 2:
where n is the stoichiometry of the self-associated complex. Errors were calculated for n and lnKA using f-statistics to two standard deviations.
Samples were prepared in PBS buffer and centrifuged at speeds of 42,000 (41), 50,000 (42), or 60,000 RPM (43) at 25° C. Experimental data are shown as points; lines indicate the best fit to a monomer-n-mer model described by Eq. 2.

[10] = pH- and temperature-dependent; read-out: equilibrium dissociation constant (Kd) of the aPP dimer; cited from earlier work

Lck SH3 domain-GST fusion protein, sequence (P06239 62-128): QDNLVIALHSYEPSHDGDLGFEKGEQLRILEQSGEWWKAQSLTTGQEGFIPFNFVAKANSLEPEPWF
Hck SH3 domain-GST fusion protein, sequence (P08631 77-137): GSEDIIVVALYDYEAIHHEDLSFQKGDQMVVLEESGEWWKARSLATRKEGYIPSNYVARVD
Fyn SH3 domain-GST fusion protein, sequence (P06241 81-142): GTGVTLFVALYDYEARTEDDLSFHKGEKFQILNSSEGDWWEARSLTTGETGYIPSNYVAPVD
Lyn SH3 domain-GST fusion protein, sequence (P07948 62-122): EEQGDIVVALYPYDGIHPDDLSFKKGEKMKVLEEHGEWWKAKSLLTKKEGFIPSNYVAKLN

Molecule: CC(C)C[C@H](NC(=O)[C@@H]1CCCN1C(=O)[C@@H]1CCCN1C(=O)[C@H](C)NC(=O)CNC(=O)CNC(=O)[C@@H](N)CSCC(=O)Nc1ccc2c(c1)C(=O)OC21c2ccc(O)cc2Oc2cc(O)ccc21)C(=O)N1CCC[C@H]1C(=O)N1CCC[C@H]1C(=O)N[C@@H](CCCNC(=N)N)C(=O)N[C@@H](CC(N)=O)C(=O)N[C@@H](CCCNC(=N)N)C(=O)N1CCC[C@H]1C(=O)N[C@@H](CCCNC(=N)N)C(N)=O [^Flu1]
Kd [1]: 1.5 ± 0.1 µM | Kd [2]: 1.4 ± 0.2 µM | Kd [3]: 1.6 ± 0.2 µM | Kd [4]: 2 ± 0.3 µM | Kd [5]: > 20 µM | Kd [6]: > 100 µM

n (monomer-n-mer fit, Eq. 2) ([7]; 5° C.): 2.5 | % monomer ([7]; 5° C.): 74% | ln KA (m) ([7]; 5° C.): 25.7 (25.3, 26.0) | % monomer ([7]; 10° C.): 82% | ln KA (m) ([7]; 10° C.): 25.3 (25.0, 25.5) | % monomer ([7]; 15° C.): 84% | ln KA (m) ([7]; 15° C.): 25.6 (25.4, 25.8) | % monomer ([7]; 20° C.): 90% | ln KA (m) ([7]; 20° C.): 25.0 (24.8, 25.2) | KD (tetramer, monomer/dimer/tetramer model) ([7]; 25° C.): 6.8×10^−12 M^3 | % dimer ([7]; 25° C., at 30 micromolar): 9% | % tetramer ([7]; 25° C., at 30 micromolar): 1% | % monomer ([7]; 25° C.): 90% | ln KA (m) ([7]; 25° C.): 25.7 (25.4, 26.0) | n (monomer-n-mer fit, Eq. 2) ([7]; 30° C.): 3.6 | % monomer ([7]; 30° C.): 98% | ln KA (m) ([7]; 30° C.): 24.4 (24.2, 24.5) | CD ellipticity at 222 nm [8]: -9700 deg cm^2 dmol^−1 | Tm (cooperative unfolding transition) ([8]; temperature-dependent CD at 222 nm): 20 °C
Molecule: GPSQPTAPGDDASPEDLIRFYDNLQQYLNVVTRHRY [aPP^Y7AP13SV14P]

% monomer at 30 μM [9]: 14% | lnKA when n = 2 [9]: when n = 2 13.57 | n (stoichiometry of the self-associated complex) [9]: 1.86 | Kd (self-association, dimer) [9]: 1.3 µM | CD ellipticity at 222 nm [8]: -14700 deg cm^2 dmol^−1
Molecule: GPSQPTYPGDDAPVEDLIRFADNLQQYLNVVTRHRY [aPP^Y21A]

Kd (self-association, dimer) [9]: 4.1 µM
Molecule: avian pancreatic polypeptide (GPSQPTYPGDDAPVEDLIRFYDNLQQYLNVVTRHRY; ends and bridges not checked) [aPP, purchased from American Peptide Company, reference compound]
% monomer at 30 μM [9]: 23% | % in the dimer state at 30 micromolar ([9]; 30 micromolar): > 94% | lnKA when n = 2 [9]: when n = 2 12.41 | n (stoichiometry of the self-associated complex) [9]: 1.92 | Kd [10]: 0.0004 to 5 µM
